Patent publication US20230286973A1, “PROTEIN SECRETION INHIBITORS” (KEZAR LIFE SCIENCES, priority 2020, published 2023)
pEC50, pIC50: −log10 of the molar value. Read-outs that look alike come from different tables or passages of the source.

Assays:
[1] = test system: multiple myeloma cell line NCI-H929; assay: H929 Cell Viability Assay; format: cell-based, human; conditions: Homo sapiens, NCI-H929, 48 h, NCI-H929 cells, Celltiter-Glo
Procedure, shortened: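 Viability is scored by CellTiter-Glo luminescence following a 48-hour treatment at 37° C. Data for structures shown without stereochemistry refer to stereoisomer mixtures.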

[2] = Liver Microsome Stability Assay (human); conditions: human liver microsomes, with NADPH, 1.0 uM compound
Procedure: (§1) Stability of a compound was assessed in the presence of liver microsomes from various sources—mouse, rat, monkey and human liver microsomes. 1.0 uM compound, 0.4% DMSO in 0.1 M Potassium Phosphate with 1.0 mg/mL liver microsomes, were incubated at 37° C. with or without 1 mM NADPH. The samples were quenched at 0, and 30 minutes.

[3] = test system: HER3-ss+4aa/Gaussia Luciferase; assay: Dox-Induced Her3-ss-Gluc Assay; format: cell-based; conditions: 24 hr Dox induction, 293FRT/TO cells, read-out: 24 hr Dox Inducible Her3(ss + 4)Gluc 293FRT/TO: Mean IC50
Procedure, shortened: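 Reporter line: Flp-In 293 T-REx, T-REx-regulated HER3-ss+4aa fused to Gaussia luciferase. Compound co-added with doxycycline after overnight plating, 37° C., 5% CO2.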

[4] = test system: TNFα-FL/Gaussia Luciferase; assay: Dox Induced TNFα-FL-Gluc Assay; format: cell-based; conditions: for pIC50: 24 hr Dox induction, 293FRT/TO cells, read-out: 24 hr Dox Inducible TNFaFLGluc 293FRT/TO: Mean IC50; for 24 hr Dox Inducible TNFaFLGluc 293FRT/TO: TNF/PD1: ratio of TNFaFLGluc IC50 to PD1ssGluc IC50
Procedure, shortened: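 Doxycycline-inducible Gaussia luciferase-tagged full-length TNFα (1-233) was expressed in stable Flp-In 293 T-REx cells. Compounds were co-added with doxycycline and incubated at 37 °C, 5% CO2.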

[5] = test system: multiple myeloma cell line U266B1; assay: U266 Cell Viability Assay; format: cell-based, human; conditions: Homo sapiens, U-266, 48 h, U266B1 cells, Celltiter-Glo
Procedure, shortened: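 Viability is measured as luciferase signal from CellTiter-Glo following a 48-hour incubation with compound at 37° C. under 5% CO2. Where structures lack drawn stereochemistry, values refer to stereoisomer mixtures.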

[6] = test system: PD1-ss+10aa/Gaussia Luciferase; assay: Dox-Induced PD1-ss-Gluc Assay; format: cell-based; conditions: 24 hr Dox induction, 293FRT/TO cells, read-out: 24 hr Dox Inducible PD1ssGluc 293FRT/TO: Mean IC50
Procedure, shortened: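 Doxycycline-induced expression of a PD1-ss+10aa/Gaussia luciferase reporter is measured in stable Flp-In 293 T-REx cells. Compound dilutions containing doxycycline are added one day after plating and incubated at 37 °C, 5% CO2. Values for unassigned stereocentres refer to stereoisomer mixtures.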

[7] = Liver Microsome Stability Assay (monkey); conditions: monkey liver microsomes, with NADPH, 1.0 uM compound
Procedure: as §1

[8] = Liver Microsome Stability Assay (mouse); conditions: mouse liver microsomes, with NADPH, 1.0 uM compound
Procedure: as §1

[9] = Liver Microsome Stability Assay (rat); conditions: rat liver microsomes, with NADPH, 1.0 uM compound
Procedure: as §1

[10] = test system: IL-2-FL/Gaussia Luciferase; assay: Dox Induced IL2-FL-Gluc Assay; format: cell-based; conditions: for pIC50: 24 hr Dox induction, 293FRT/TO cells, read-out: 24 hr Dox Inducible IL2FLGluc 293FRT/TO: Mean IC50; for 24 hr Dox Inducible IL2FLGluc 293FRT/TO: IL2/PD1: ratio of IL2FLGluc IC50 to PD1ssGluc IC50
Procedure, shortened: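 Doxycycline induces an IL-2(1-153)–Gaussia luciferase fusion in a stable Flp-In 293 T-REx line. Compound exposure runs alongside induction at 37° C.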

[11] = '<=>' given where both are I.A.

| Structure (SMILES) | pEC50 [1] | Liver Microsome Stability (Multiple Species): Human - % Remaining after 30 min w/NADPH [2] [%] | pIC50 [3] | pIC50 [4] | 24 hr Dox Inducible TNFaFLGluc 293FRT/TO: TNF/PD1 [4] | pEC50 [5] | pIC50 [6] | Liver Microsome Stability (Multiple Species): Monkey - % Remaining after 30 min w/NADPH [7] [%] | Liver Microsome Stability (Multiple Species): Mouse - % Remaining after 30 min w/NADPH [8] [%] | Liver Microsome Stability (Multiple Species): Rat - % Remaining after 30 min w/NADPH [9] [%] | pIC50 [10] | 24 hr Dox Inducible IL2FLGluc 293FRT/TO: IL2/PD1 [10] | pIC50 ([3]; mean) | pIC50 ([4]; mean) | 24 hr Dox Inducible TNFaFLGluc 293FRT/TO: TNF/PD1 [4, 11] | pIC50 ([6]; mean) | pIC50 ([10]; mean) | 24 hr Dox Inducible IL2FLGluc 293FRT/TO: IL2/PD1 [10, 11] |
| --- | --- | --- | --- | --- | --- | --- | --- | --- | --- | --- | --- | --- | --- | --- | --- | --- | --- | --- |
| CC(C(N)=O)n1cnc(/C=C/c2csc(NC(=O)c3cccn3Cc3ccnc(F)c3)n2)c1 (centres unmarked) [Compound B113, (E)-N-(4-(2-(1-(1-amino-1-oxopropan-2-yl)-1H-imidazol-4-yl)vinyl)thiazol-2-yl)-1-((2-fluoropyridin-4-yl)methyl)-1H-pyrrole-2-carboxamide] | < 4.60 | 7.08 | < 4.60 | < 4.60 | <=>1.00 | < 4.60 | < 4.60 | 3.11 | 68.2 | 69.7 | < 4.60 | <=>1.0 | – | – | – | – | – | – |
| CCc1ccc(N2CCC[C@@H]2c2csc(NC(=O)c3cccn3Cc3ccncc3)n2)nc1 [Compound E65, (R)-N-(4-(1-(5-ethylpyridin-2-yl)pyrrolidin-2-yl)thiazol-2-yl)-1-(pyridin-4-ylmethyl)-1H-pyrrole-2-carboxamide] | 6.85 | 0.33 | – | – | – | < 4.60 | – | 0.13 | 0.33 | 2.87 | – | – | 7.84 | 7.15 | 12.9 | 8.26 | 7.78 | 3 |
| O=C(Nc1nc([C@H]2CCCN2c2ccccc2)cs1)c1cccn1Cc1cccc(Cl)c1 [Compound C122, (R)-1-(3-chlorobenzyl)-N-(4-(1-phenylpyrrolidin-2-yl)thiazol-2-yl)-1H-pyrrole-2-carboxamide] | < 4.60 | 75.8 | – | – | – | < 4.60 | – | 52.2 | 50.6 | 52.6 | – | – | 6.00 | < 4.60 | >23.3 | 5.97 | 5.87 | 1.3 |
| CC(=O)N1CCC(Oc2ccc(N3CCC[C@@H]3c3csc(NC(=O)c4cccn4Cc4ccnc(F)c4)n3)c(Cl)c2)CC1 [Compound A143, (R)-N-(4-(1-(4-((1-acetylpiperidin-4-yl)oxy)-2-chlorophenyl)pyrrolidin-2-yl)thiazol-2-yl)-1-((2-fluoropyridin-4-yl)methyl)-1H-pyrrole-2-carboxamide] | 6.00 | 0.16 | 7.19 | 6.68 | 4.03 | 4.92 | 7.28 | 0.01 | 0.06 | 6.14 | 7.51 | 0.6 | – | – | – | – | – | – |
| O=C(Nc1nc(CC2CCCCO2)cs1)c1cccn1Cc1ccncc1 (centres unmarked) [Compound E9, 1-(pyridin-4-ylmethyl)-N-(4-((tetrahydro-2H-pyran-2-yl)methyl)thiazol-2-yl)-1H-pyrrole-2-carboxamide] | < 4.60 | 0.86 | – | – | – | < 4.60 | – | 2.42 | 19 | 4.69 | – | – | 5.41 | 4.71 | 25.1 | 6.11 | 5.44 | 4.7 |
| O=C(NC1=NC(CCc2ccccc2)CS1)c1cccn1Cc1ccncc1 (centres unmarked) [Compound E50] | < 4.60 | 0.06 | – | – | – | < 4.60 | – | 0.08 | 0.23 | 0.64 | – | – | 5.36 | < 4.60 | >12.8 | 5.71 | 5.26 | 2.8 |
| CC(=O)N1CCC(Oc2ccc(N3CCC[C@@H]3c3csc(NC(=O)c4cc(C)cn4Cc4ccnc(F)c4)n3)cc2)CC1 [Compound A165, (R)-N-(4-(1-(4-((1-acetylpiperidin-4-yl)oxy)phenyl)pyrrolidin-2-yl)thiazol-2-yl)-1-((2-fluoropyridin-4-yl)methyl)-4-methyl-1H-pyrrole-2-carboxamide] | 6.06 | 42.1 | 7.28 | 6.41 | 13 | < 4.60 | 7.53 | 47.5 | 30.7 | 59.2 | 7.34 | 1.5 | – | – | – | – | – | – |
| O=C(O)CCCCn1cccc1C(=O)Nc1nc([C@H]2CCCN2c2ccccc2)cs1 [Compound C11] | < 4.60 | 65.2 | – | – | – | < 4.60 | – | 76.1 | 52.3 | 83.1 | – | – | < 4.60 | < 4.60 | – | < 4.60 | < 4.60 | 1 |
